Reference: article PMC9143880, “Improving Antimicrobial Activity and Physico-Chemical Properties by Isosteric Replacement of 2-Aminothiazole with 2-Aminooxazole” (Pharmaceuticals, 2022)
Converted amounts (≈) assume the structure as drawn. Where two headings read alike, the source gives them in different places.

Legend:
[1] = test system: Candida krusei CCM 8271 (ATCC 6258); experiment: Antifungal microdilution broth (EUCAST); settings: for MIC: Pichia kudriavzevii, 24 h, read-out: MIC CK
[2] = test system: M. aurum DSM 43999 (ATCC 23366); experiment: Antimycobacterial MIC, microdilution broth / resazurin; format: cell-based; settings: Mycolicibacterium aurum; resazurin after 72 h; read-out: MIC M. aurum
[3] = test system: Candida parapsilosis CCM 8260 (ATCC 22019); experiment: Antifungal microdilution broth (EUCAST); settings: for MIC: Lodderomyces parapsilosis, 24 h, read-out: MIC CP
[4] = test system: Staphylococcus aureus subsp. aureus CCM 4223 (ATCC 29213); experiment: Antibacterial microdilution broth (EUCAST); format: cell-based; settings: 24h incubation; for MIC: Staphylococcus aureus, read-out: MIC SA
HepG2 cells = experiment: HepG2 cytotoxicity screening (CellTiter 96); format: cell-based, human; settings: Homo sapiens, HepG2, 24 h, 24 h incubation, CellTiter 96; * above highest tested concentration; ** limited by insolubility in medium
[5] = test system: Acinetobacter baumannii DSM 30007 (ATCC 19606); experiment: Antibacterial microdilution broth (EUCAST); format: cell-based; settings: 24h incubation; for MIC: Acinetobacter baumannii, read-out: MIC AB
[6] = test system: Staphylococcus aureus subsp. aureus (MRSA) CCM 4750 (ATCC 43300); experiment: Antibacterial microdilution broth (EUCAST); format: cell-based; settings: 24h incubation; for MIC: Staphylococcus aureus, read-out: MIC MRSA
[7] = test system: Enterococcus faecalis CCM 4224 (ATCC 29212); experiment: Antibacterial microdilution broth (EUCAST); format: cell-based; settings: 24h incubation; for MIC: Enterococcus faecalis, read-out: MIC EF
[8] = test system: Candida albicans CCM 8320 (ATCC 24433); experiment: Antifungal microdilution broth (EUCAST); settings: for MIC: Candida albicans, 24 h, read-out: MIC CA
[9] = test system: Pseudomonas aeruginosa CCM 3955 (ATCC 27853); experiment: Antibacterial microdilution broth (EUCAST); format: cell-based; settings: 72h incubation; for MIC: Pseudomonas aeruginosa, read-out: MIC PA
[10] = test system: Mycobacterium tuberculosis H37Ra ITM-M006710 (ATCC 9431); experiment: Antimycobacterial MIC, microdilution broth / Alamar Blue (resazurin); format: cell-based; settings: Mycobacterium tuberculosis, 120 h, Middlebrook 7H9, resazurin after 120 h; read-out: Mtb H37Ra MIC
[11] = test system: Lichtheimia corymbifera CCM 8077; experiment: Antifungal microdilution broth (EUCAST); settings: for MIC: Lichtheimia corymbifera, CCM8077, 24 h, read-out: MIC LC
[12] = test system: Aspergillus flavus CCM 8363; experiment: Antifungal microdilution broth (EUCAST); settings: for MIC: Aspergillus flavus, CCM8363, 24 h, read-out: MIC AFla
[13] = test system: Staphylococcus epidermidis CCM 4418 (ATCC 12228); experiment: Antibacterial microdilution broth (EUCAST); format: cell-based; settings: 24h incubation; for MIC: Staphylococcus epidermidis, read-out: MIC SE
[14] = test system: Aspergillus fumigatus ATCC 204305; experiment: Antifungal microdilution broth (EUCAST); settings: for MIC: Aspergillus fumigatus, ATCC204305, 24 h, read-out: MIC AF
[15] = test system: Escherichia coli CCM 3954 (ATCC 25922); experiment: Antibacterial microdilution broth (EUCAST); format: cell-based; settings: 24h incubation; for MIC: Escherichia coli, read-out: MIC EC
[16] = test system: M. smegmatis DSM 43465 (ATCC 607); experiment: Antimycobacterial MIC, microdilution broth / resazurin; format: cell-based; settings: Mycolicibacterium smegmatis; resazurin after 48 h; read-out: MIC M. smegmatis
[17] = test system: Trichophyton interdigitale CCM 8377 (ATCC 9533); experiment: Antifungal microdilution broth (EUCAST); settings: for MIC: Trichophyton interdigitale, 72 h, read-out: MIC TI
[18] = test system: Candida tropicalis CCM 8264 (ATCC 750); experiment: Antifungal microdilution broth (EUCAST); settings: for MIC: Candida tropicalis, 24 h, read-out: MIC CT
[19] = Kinetic water solubility (water-induced precipitation of DMSO stock, UHPLC); format: physicochemical; settings: for solubility: water (DMSO stock diluted with water), 18 °C, kinetic from dmso stock
Text: A low value of log P is often presumed to be related to increased water solubility, although this might not always be the case since log P is a measure of relative solubility of the compound in the lipophilic and hydrophilic solvents (at equilibrium). Therefore, to be sure, we tested whether the lowered log k’w (related to log P) of the oxazole derivatives would also translate to increased solubility in water in a few representative derivatives. The water solubility of selected compounds was assessed by the kinetic method based on water-induced precipitation of DMSO stock solutions of tested compounds due to reasons described by Azzali and colleagues.
Water solubility was investigated using the kinetic solubility method. The sample (1 mg) was dissolved in the smallest amount of DMSO needed, 25 or 50 μL for subtype I and subtype II compounds, respectively. The samples were mixed at 18 °C in a thermomixer (Thermomixer comfort, Eppendorf, Hamburg, Germany) for 1 h. After mixing, the samples were diluted with water to a concentration of 500 μM, and the precipitate was observed. The sample was filtered through a 0.22 μm filter and diluted to be evaluated by UHPLC. The log S parameter was calculated from the experimental solubility in molar concentration. The samples were measured using the same instrument, software, and column as used in the purity evaluation.

[20] = RP-UHPLC lipophilicity parameter log k’w; format: physicochemical; settings: for log k’w: RP-UHPLC, acetonitrile/water, log k extrapolated to 0% acetonitrile; for logkw: experimental lipophilicity parameter
Outline: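 Retention was measured once per eluent composition: subtype I at 40/45/50% and subtype II at 20/30/40% acetonitrile in water, isocratic RP-UHPLC. log k values from these runs gave the lipophilicity index log k’w.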

[21] = test system: M. avium DSM 44156 (ATCC 25291); experiment: Antimycobacterial MIC, microdilution broth / resazurin; format: cell-based, Mycobacterium avium; settings: Mycobacterium avium; resazurin after 96 h; read-out: MIC M. avium
[22] = test system: M. kansasii DSM 44162 (ATCC 12478); experiment: as above; format: cell-based; settings: Mycobacterium kansasii, read-out: MIC M. kansasii
[23] = calculated from experimentally measured water solubility in molar concentration, read-out: Exp. log S (converted)
[24] = water, kinetic method, DMSO stock diluted to 500 μM, read-out: Solubility

O=C(Nc1nccs1)c1cccnc1 [Compound 2a]
MIC [1]: > 500 µM
MIC [2]: 250 µg/mL (≈ 1220 µM)
MIC [3]: > 500 µM
MIC [4]: > 500 µM
IC50 (HepG2 cells): > 1000 µM
MIC [5]: > 500 µM
MIC [6]: > 500 µM
MIC [7]: > 500 µM
MIC [8]: > 500 µM
MIC [9]: > 500 µM
MIC [10]: 250 µg/mL (≈ 1220 µM)
MIC [11]: > 500 µM
MIC [12]: > 500 µM
MIC [13]: > 500 µM
MIC [14]: > 500 µM
MIC [15]: > 500 µM
MIC [16]: ≥ 500 µg/mL
MIC [17]: > 500 µM
MIC [18]: > 500 µM
logS_exp [19]: -1.202

O=C(Nc1nc(-c2ccccc2)cs1)c1cccnc1 [Compound 12a]
MIC [1]: > 125 µM
MIC [2]: ≥ 500 µg/mL
MIC [3]: > 125 µM
MIC [4]: > 125 µM
IC50 (HepG2 cells): > 25 µM
MIC [5]: > 125 µM
MIC [6]: > 125 µM
MIC [7]: > 125 µM
log k’w [20]: 2.131
logkw [20]: 2.131
MIC [8]: > 125 µM
MIC [9]: > 125 µM
MIC [10]: ≥ 500 µg/mL
MIC [21]: ≥ 500 µg/mL
MIC [11]: > 125 µM
MIC [12]: > 125 µM
MIC ([22]; resazurin after 96 h): ≥ 500 µg/mL
MIC [13]: > 125 µM
MIC [14]: > 125 µM
MIC [15]: > 125 µM
MIC [16]: ≥ 500 µg/mL
MIC [17]: > 125 µM
MIC [18]: > 125 µM
logS_exp ([19]; experimental log S): -3.188
solubility [19, 23]: 1 µM
solubility [19, 24]: 0.28 µg/mL

O=C(Nc1nc(-c2ccccc2)co1)c1cccnc1 [Compound 12b]
MIC [1]: > 500 µM
MIC [2]: 250 µg/mL (≈ 942 µM)
MIC [3]: > 500 µM
MIC [4]: 500 µM (≈ 133 µg/mL)
IC50 (HepG2 cells): 610 µM
MIC [5]: > 500 µM
MIC [6]: > 500 µM
MIC [7]: > 500 µM
log k’w [20]: 1.118
logkw [20]: 1.118
MIC [8]: > 500 µM
MIC [9]: > 500 µM
MIC [10]: 125 µg/mL (≈ 471 µM)
MIC [11]: > 500 µM
MIC [12]: > 500 µM
MIC [13]: 62.5 µM (≈ 16.6 µg/mL)
MIC [14]: > 500 µM
MIC [15]: > 500 µM
MIC [16]: 500 µg/mL (≈ 1880 µM)
MIC [17]: > 500 µM
MIC [18]: > 500 µM
logS_exp ([19]; experimental log S): -2.228
solubility [19, 23]: 437 µM
solubility [19, 24]: 116 µg/mL

O=C(Nc1nc(-c2ccccc2)co1)c1cnc(Cl)cn1 [Compound 18b]
MIC CK ([1]; 24h incubation): insoluble
MIC [2]: 125 µg/mL (≈ 416 µM)
MIC CP ([3]; 24h incubation): insoluble
MIC SA [4]: insoluble
IC50 (HepG2 cells): > 100 µM
MIC AB [5]: insoluble
MIC MRSA [6]: insoluble
MIC EF [7]: insoluble
log k’w [20]: 2.073
logkw [20]: 2.073
MIC CA ([8]; 24h incubation): insoluble
MIC PA [9]: insoluble
MIC [10]: 15.6 µg/mL (≈ 52 µM)
MIC [21]: 62.5 µg/mL (≈ 208 µM)
MIC LC ([11]; 24h incubation): insoluble
MIC AFla ([12]; 24h incubation): insoluble
MIC ([22]; 96 h): 15.6 µg/mL (≈ 52 µM)
MIC SE [13]: insoluble
MIC AF ([14]; 24h incubation): insoluble
MIC EC [15]: insoluble
melting point: 203 to 207 °C
MIC [16]: ≥ 500 µg/mL
MIC TI ([17]; 72h incubation): insoluble
MIC CT ([18]; 24h incubation): insoluble

O=C(Nc1nc(-c2ccccc2)co1)c1ccccc1 [Compound 20b]
MIC [1]: 500 µM (≈ 132 µg/mL)
MIC [2]: 31.2 µg/mL (≈ 118 µM)
MIC [3]: 500 µM (≈ 132 µg/mL)
MIC [4]: 250 µM (≈ 66.1 µg/mL)
IC50 (HepG2 cells): 330 µM
MIC [5]: 500 µM (≈ 132 µg/mL)
MIC [6]: 500 µM (≈ 132 µg/mL)
MIC [7]: > 500 µM
log k’w [20]: 2.090
MIC [8]: 500 µM (≈ 132 µg/mL)
MIC [9]: > 500 µM
MIC [10]: 62.5 µg/mL (≈ 236 µM)
MIC [21]: 31.2 µg/mL (≈ 118 µM)
MIC [11]: 500 µM (≈ 132 µg/mL)
MIC [12]: 500 µM (≈ 132 µg/mL)
MIC ([22]; resazurin after 96 h): 31.2 µg/mL (≈ 118 µM)
MIC [13]: 250 µM (≈ 66.1 µg/mL)
MIC [14]: 500 µM (≈ 132 µg/mL)
MIC [15]: > 500 µM
melting point: 143 to 145 °C
MIC [16]: 125 µg/mL (≈ 473 µM)
MIC [17]: 250 µM (≈ 66.1 µg/mL)
MIC [18]: 500 µM (≈ 132 µg/mL)
